Measurements from patent US10131652B2, “Pyrimidinyloxy benzene derivatives as herbicides” (E. I. DU PONT DE NEMOURS AND COMPANY, priority 2014, dated 2018).
Like-named read-outs stand apart in the source and are kept apart here.

Assays:
Test in all cases: Test D pre-/postemergence plant response
Assay type in all cases: in vivo
[1] = test system: winter wheat (Triticum aestivum); details: Triticum aestivum; for plant injury at 16 g/ha: 16 g ai/ha; for plant injury at 31 g/ha: 31 g ai/ha; for plant injury at 62 g/ha: 62 g ai/ha; for plant injury at 125 g/ha: 125 g ai/ha
In short: (§1)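 Visual rating, 0–100 scale (0 = no effect, 100 = complete control), versus untreated controls 13 to 15 days after treatment in greenhouse. Preemergence: seeds in loam/sand soil. Postemergence: 2 to 18 cm plants, 1- to 4-leaf stage, peat-based medium. Compounds formulated in non-phytotoxic solvent plus surfactant.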

[2] = test system: large (Lg) crabgrass (Digitaria sanguinalis); details: Digitaria sanguinalis; for pest or weed control at 16 g/ha: 16 g ai/ha; for pest or weed control at 31 g/ha: 31 g ai/ha; for pest or weed control at 62 g/ha: 62 g ai/ha; for pest or weed control at 125 g/ha: 125 g ai/ha
In short: as §1

[3] = test system: galium (catchweed bedstraw, Galium aparine); details: Galium; for pest or weed control at 16 g/ha: 16 g ai/ha; for pest or weed control at 31 g/ha: 31 g ai/ha; for pest or weed control at 62 g/ha: 62 g ai/ha; for pest or weed control at 125 g/ha: 125 g ai/ha
In short: as §1

[4] = test system: johnsongrass (Sorghum halepense); details: Sorghum halepense; for pest or weed control at 16 g/ha: 16 g ai/ha; for pest or weed control at 31 g/ha: 31 g ai/ha; for pest or weed control at 62 g/ha: 62 g ai/ha; for pest or weed control at 125 g/ha: 125 g ai/ha
In short: as §1

[5] = test system: lambsquarters (Chenopodium album); details: Chenopodium album; for pest or weed control at 16 g/ha: 16 g ai/ha; for pest or weed control at 31 g/ha: 31 g ai/ha; for pest or weed control at 62 g/ha: 62 g ai/ha; for pest or weed control at 125 g/ha: 125 g ai/ha
In short: as §1

[6] = pre-emergence, Preemergence, scale 0 to 100 (0 no effect, 100 complete control), read-out: Plant response rating, Wheat
[7] = post-emergence, Postemergence, scale 0 to 100, 0 no effect, 100 complete control, read-out: Plant response rating, Crabgrass, Large
[8] = pre-emergence, Preemergence, scale 0 to 100 (0 no effect, 100 complete control), read-out: Plant response rating, Crabgrass, Large
[9] = post-emergence, Postemergence, scale 0 to 100, 0 no effect, 100 complete control, read-out: Plant response rating, Galium
[10] = pre-emergence, Preemergence, scale 0 to 100 (0 no effect, 100 complete control), read-out: Plant response rating, Galium
[11] = post-emergence, Postemergence, scale 0 to 100, 0 no effect, 100 complete control, read-out: Plant response rating, Johnsongrass
[12] = pre-emergence, Preemergence, scale 0 to 100 (0 no effect, 100 complete control), read-out: Plant response rating, Johnsongrass
[13] = pre-emergence, Preemergence, scale 0 to 100 (0 no effect, 100 complete control), read-out: Plant response rating, Lambsquarters

FC(F)(F)c1cc(-c2ccccc2Oc2ncc(Cl)cn2)no1 [Compound 200, 5-chloro-2-[2-[5-(trifluoromethyl)-3-isoxazolyl]phenoxy]pyrimidine]
plant injury at 16 g/ha ([1]; post-emergence, Postemergence, read-out: Plant response rating (scale 0 to 100), Wheat): 5% | plant injury at 31 g/ha ([1]; post-emergence, Postemergence, scale 0 to 100 (0 no effect, 100 complete control), read-out: Wheat plant response rating): 10% | plant injury at 62 g/ha ([1]; post-emergence, Postemergence, scale 0 to 100, 0 no effect, 100 complete control, read-out: Wheat plant response rating): 25% | plant injury at 125 g/ha ([1]; post-emergence, Postemergence, scale 0 to 100, 0 no effect, 100 complete control, read-out: Plant response rating, Wheat): 20% | plant injury at 125 g/ha ([1]; pre-emergence, Preemergence, read-out: Plant response rating (scale 0 to 100), Wheat): 40% | plant injury at 16 g/ha [1, 6]: 0% | plant injury at 31 g/ha [1, 6]: 5% | plant injury at 62 g/ha [1, 6]: 20% | pest or weed control at 16 g/ha ([2]; post-emergence, Postemergence, read-out: Plant response rating (scale 0 to 100), Crabgrass, Large): 10% | pest or weed control at 31 g/ha ([2]; post-emergence, Postemergence, scale 0 to 100 (0 no effect, 100 complete control), read-out: Crabgrass, Large plant response rating): 10% | pest or weed control at 62 g/ha [2, 7]: 25% | pest or weed control at 125 g/ha [2, 7]: 35% | pest or weed control at 125 g/ha ([2]; pre-emergence, Preemergence, read-out: Plant response rating (scale 0 to 100), Crabgrass, Large): 100% | pest or weed control at 16 g/ha [2, 8]: 98% | pest or weed control at 31 g/ha [2, 8]: 100% | pest or weed control at 62 g/ha [2, 8]: 100% | pest or weed control at 16 g/ha ([3]; post-emergence, Postemergence, read-out: Plant response rating (scale 0 to 100), Galium): 75% | pest or weed control at 31 g/ha ([3]; post-emergence, Postemergence, scale 0 to 100 (0 no effect, 100 complete control), read-out: Galium plant response rating): 100% | pest or weed control at 62 g/ha [3, 9]: 100% | pest or weed control at 125 g/ha [3, 9]: 100% | pest or weed control at 125 g/ha ([3]; pre-emergence, Preemergence, read-out: Plant response rating (scale 0 to 100), Galium): 95% | pest or weed control at 16 g/ha [3, 10]: 85% | pest or weed control at 31 g/ha [3, 10]: 98% | pest or weed control at 62 g/ha [3, 10]: 100% | pest or weed control at 16 g/ha ([4]; post-emergence, Postemergence, read-out: Plant response rating (scale 0 to 100), Johnsongrass): 15% | pest or weed control at 31 g/ha ([4]; post-emergence, Postemergence, scale 0 to 100 (0 no effect, 100 complete control), read-out: Johnsongrass plant response rating): 20% | pest or weed control at 62 g/ha [4, 11]: 45% | pest or weed control at 125 g/ha [4, 11]: 40% | pest or weed control at 125 g/ha ([4]; pre-emergence, Preemergence, read-out: Plant response rating (scale 0 to 100), Johnsongrass): 100% | pest or weed control at 16 g/ha [4, 12]: 25% | pest or weed control at 31 g/ha [4, 12]: 60% | pest or weed control at 62 g/ha [4, 12]: 85% | pest or weed control at 16 g/ha ([5]; post-emergence, Postemergence, read-out: Plant response rating (scale 0 to 100), Lambsquarters): 70% | pest or weed control at 31 g/ha ([5]; post-emergence, Postemergence, scale 0 to 100 (0 no effect, 100 complete control), read-out: Lambsquarters plant response rating): 80% | pest or weed control at 62 g/ha ([5]; post-emergence, Postemergence, scale 0 to 100, 0 no effect, 100 complete control, read-out: Lambsquarters plant response rating): 85% | pest or weed control at 125 g/ha ([5]; post-emergence, Postemergence, scale 0 to 100, 0 no effect, 100 complete control, read-out: Plant response rating, Lambsquarters): 98% | pest or weed control at 125 g/ha ([5]; pre-emergence, Preemergence, read-out: Plant response rating (scale 0 to 100), Lambsquarters): 100% | pest or weed control at 16 g/ha [5, 13]: 75% | pest or weed control at 31 g/ha [5, 13]: 98% | pest or weed control at 62 g/ha [5, 13]: 95%
